# What was measured:
# Assay type in all cases: in vivo
# [1] = tested on: human subject suffering from osteoarthritis; assay: Example B: capsule treatment of a subject suffering from osteoarthritis; settings: capsule containing 70 mg daily for 5 years, 90 kg human
# Method: A capsule for oral administration, according to the present invention, is made comprising:
# A human subject weighing 90 kg (198 lbs.), suffering from osteoarthritis, is treated by a method of this invention. Specifically, for 5 years, a capsule containing 70 mg of the compound of Example 3 is administered daily to said subject.
# [2] = tested on: human subject suffering from rheumatoid arthritis; assay: Example A: tablet treatment of a subject suffering from rheumatoid arthritis; settings: tablet with 15 mg compound, three tablets per day orally for 2 years, 60 kg human
# Method: A tablet composition for oral administration, according to the present invention, is made comprising:
# A human subject weighing 60 kg (132 lbs), suffering from rheumatoid arthritis, is treated by a method of this invention. Specifically, for 2 years, a regimen of three tablets per day is administered orally to said subject.
# asthma sufferer = assay: Example E: inhalation aerosol for asthma; settings: 5.0% w/v inhalation aerosol, 0.01 mL sprayed into the mouth while inhaling
# Method: An inhalation aerosol composition, according to the present invention, is made comprising: An asthma sufferer sprays 0.01 mL via a pump actuator into the mouth while inhaling.
compound,measurement,setting,value
"CC(C)(C)OC(=O)N1CCC(C(NS(=O)(=O)c2ccc(Oc3ccccc3)cc2)C(=O)O)CC1 (stereo not drawn) [Example 3, 4-[Carboxy-(4-phenoxy-benzenesulfonylamino)-methyl]-piperidine-1-carboxylic acid tert-butyl ester]","erosion/fibrillation of the articular cartilage via x-ray, arthroscopy and/or MRI at the end of treatment",[1],no further advancement of erosion/fibrillation of the articular cartilage
"COCCOC(=O)N1CCC(C(NS(=O)(=O)c2ccc(-c3ccc(OC)cc3)cc2)C(=O)O)CC1 (stereo not drawn) [Example 31, 4-[Carboxy-(4′-methoxy-biphenyl-4-sulfonylamino)-methyl]-piperidine-1-carboxylic acid 2-methoxy-ethyl ester]","patient examination at the end of the treatment period (inflammation, mobility, pain)",[2],"reduced inflammation, and improved mobility without concomitant pain"
"COc1ccc(-c2ccc(S(=O)(=O)NC3(C(=O)O)CCNCC3)cc2)cc1 [Example 56, 4-(4′-Methoxy-biphenyl-4-sulfonylamino)-piperidine-4-carboxylic acid]",asthma symptoms,asthma sufferer,Asthma symptoms are diminished
